Reference: US20090172831A1, “Methods for the production of plants resistant to HPPD herbicides” (Syngenta Limited, priority 2000, published 2009)
“And” between values parts separate entries of the source, which are not always exact repeats. Equal values may be shown once.

Experiments:
Arabidopsis HPPD = molecular target: T1, Arabidopsis HPPD (Arabidopsis thaliana, UniProt P93836); assay: Inhibition of HPPD (E. coli extract) after pre-incubation with inhibitor; format: biochemical; settings: read-out: inhibition (relative to controls)
T1 construct: made in house; host or cells: E. coli BL21 (DE3) codon+ RP
T1 sequence (P93836 1-445): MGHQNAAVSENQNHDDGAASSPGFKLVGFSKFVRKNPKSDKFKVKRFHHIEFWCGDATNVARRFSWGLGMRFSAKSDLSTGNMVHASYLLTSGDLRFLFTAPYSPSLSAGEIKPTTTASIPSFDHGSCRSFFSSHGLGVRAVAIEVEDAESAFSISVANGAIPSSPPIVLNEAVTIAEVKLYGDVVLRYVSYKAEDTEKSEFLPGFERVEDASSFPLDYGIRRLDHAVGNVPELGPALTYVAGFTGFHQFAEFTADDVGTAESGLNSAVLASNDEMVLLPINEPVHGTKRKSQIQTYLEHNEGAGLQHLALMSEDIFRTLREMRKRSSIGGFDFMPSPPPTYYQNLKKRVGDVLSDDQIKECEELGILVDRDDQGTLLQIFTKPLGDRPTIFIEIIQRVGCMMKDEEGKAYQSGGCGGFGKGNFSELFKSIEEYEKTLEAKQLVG
Procedure: Qualitative measurements of the differences in Kd values in respect of different HPPD inhibitors are obtained by pre-incubating enzyme with inhibitor and, then, subsequently, measuring the % inhibition. For example HPPD is isolated from maize seedlings, part purified and assayed by similar methods to those described by Schulz et al 1993 (FEBS LETS. 318, 162-166) and by Secor (1994) in Plant Physiol. 106, 1429-1433. Assays are run for 30 minutes and started with addition of radiolabelled hydroxyphenylpyruvate (final concentration ˜0.1-0.2 mM) following a 20-30 min period over which inhibitor is pre-incubated with the part-purified enzyme.
Using the same assay method but using HPPD from Arabidopis (obtained from E. coli cells transformed to express the Arabidopsis HPPD and prepared as an E. coli extract similar to the methods described by Garcia et al in Plant Physiol (1999) 119, 1507-1516) the following levels of inhibition (relative to controls) are observed with the following doses of herbicide versus Arabidopsis HPPD.

[1] = tested on: tobacco plants transformed to express wheat HPPD; assay: Tolerance of tobacco transformed with wheat HPPD to herbicides; format: in vivo; settings: MS agar; a number of PCR+ve transformants (0.1), a sub-set (>0.2); listed as mesotrione
Source text: These constructs were all transformed into Agrobacterium tumefaciens strain LBA4404, which in turn was used to transform tobacco, using methodology described previously.
Explants (i.e. a leaf plus short segment of stem containing the auxiliary bud) are placed into MS agar (+3% sucrose) containing various concentrations of mesotrione (see above) from 0.02 to 2 ppm.

Wheat HPPD = Wheat HPPD (Triticum aestivum, UniProt A0A3B6NLC6); assay: kon from HPLC enzyme assay (progressive inhibition / timed pre-reaction); format: biochemical; settings: for observed first order decay rate constant: 100 μM HPP (no inhibitor: 0.016)
Procedure: Assay buffer is 105 μM (or as appropriate) hydroxyphenylpyruvate (HPP) is freshly made up in 50 mM Bis-Tris-propane buffer at pH 7.0. Dilution buffer is 50 mM Bis-Tris-propane buffer at pH 7.0 containing 25 mM sodium ascorbate and 3.8 mg/l of bovine catalase (Sigma C3155˜50,000 units/mg). HPPD enzyme, freshly unfrozen from storage is kept at ice temperature and diluted, also at ice temperature, to an appropriate concentration in dilution buffer (typically, 2-8 μM) before use. Assays are started by addition of 5 μl of diluted enzyme to 100 μl of assay buffer at 25 C in an eppendorf centrifuge and stopped, at a series of times between 0 and 90 s by addition of 20 μl of 25% perchloric acid and whirlimixing. 80-100 μl of the contents of each eppendorf tube is transferred to an HPLC vial prior to separation by Reverse Phase HPLC. For HPLC, 40 μl is loaded at 1.5 ml/min onto an Aqua C18 5μ 75×4.6 mm column (silica is endcapped) equilibrated with 5.5% acetonitrile, 0.1% trifluoroacetic acid (buffer A) using an HP 1100 HPLC system. The column is eluted, also at 1.5 ml/min, using a 2 minute wash with buffer A, followed by a 2 min wash with a 30/70 mixture of buffer A/100% acetonitrile followed by a further 3.5 minute wash with buffer A (in between uses the column is stored in 65% acetonitrile/water). The elution of HGA (homogentisic acid) and HPP(hydroxyphenylpyruvate) is monitored using a UV flow cell and quantitated via integration of peak absorbance at 292 nm. HGA elutes at around 2 minutes and HPP elutes later. A standard set of concentrations of HGA are used to provide a standard curve in order to calibrate the UV absorbance of the HGA peak versus HGA concentration.
In FIG. 3 assays containing 100 μM HPP substrate were started with addition of wheat HPPD to a final concentration of ˜19 nM and stopped at the times indicated.
In a more direct assay-based method for measuring kon values, test HPPD enzyme is reacted with inhibitor for a range of times and then the inhibition reaction is effectively stopped by addition of a high concentration of the (competitive) substrate HPP. […]

dicot plants = assay: Herbicidal activity versus dicot plants averaged over 6 or more species; settings: in vivo
Source text: Activity versus dicot plants refers here to herbicidal activity averaged over a range of 6 or more of those dicot weed and crop species usually used in screens used for compound discovery in the agrochemical community. Herbicidal activity versus dicot plants also refers here to that activity which is due to the inhibitor per se rather than due to some, potentially more herbicidal, metabolite of it which may be formed in planta or otherwise.

Chain of Wheat HPPD (A0A3B6NLC6 entry or part of it): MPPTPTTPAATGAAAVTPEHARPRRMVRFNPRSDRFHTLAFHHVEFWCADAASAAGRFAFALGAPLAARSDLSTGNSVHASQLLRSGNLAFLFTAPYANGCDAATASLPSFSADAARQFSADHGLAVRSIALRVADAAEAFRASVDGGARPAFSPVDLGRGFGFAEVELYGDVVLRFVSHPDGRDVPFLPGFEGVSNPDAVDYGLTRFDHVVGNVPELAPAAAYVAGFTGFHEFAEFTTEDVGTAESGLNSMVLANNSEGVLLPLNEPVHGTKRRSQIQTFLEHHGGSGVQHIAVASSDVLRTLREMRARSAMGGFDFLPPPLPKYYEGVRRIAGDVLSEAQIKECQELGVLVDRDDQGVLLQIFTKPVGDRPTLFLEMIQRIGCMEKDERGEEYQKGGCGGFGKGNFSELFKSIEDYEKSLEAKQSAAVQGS

Structure (SMILES)	inhibition at 0.001 µM (Arabidopsis HPPD; 1 nM) [%]	inhibition at 0.01 µM (Arabidopsis HPPD; 10 nM) [%]	inhibition at 0.1 µM (Arabidopsis HPPD; 100 nM) [%]	inhibition at 1 µM (Arabidopsis HPPD; 1000 nM) [%]	concentration tolerated with no indication of bleaching / plants looking normal [1]	kon (Wheat HPPD) [M⁻¹ s⁻¹]	observed first order decay rate constant (Wheat HPPD; 2.5 μM inhibitor) [s⁻¹]	observed first order decay rate constant (Wheat HPPD; 10 μM inhibitor) [s⁻¹]	herbicidal activity versus dicot plants relative to mesotrione (dicot plants)
CS(=O)(=O)c1ccc(C(=O)C2C(=O)CCCC2=O)c([N+](=O)[O-])c1 [Structure I, 2-(Nitro-4-methanesulphonylbenzoyl)-cyclohexane-1,3-dione, reference compound]	42	95	100	100	0.1 ppm and > 0.2 ppm				
Cc1nc(C(F)(F)F)ccc1C(=O)C1C(=O)C2CCC(C2)C1=O (stereo not drawn) [Structure II]						48000 to 57200	0.029	0.06	at least a quarter of the herbicidal activity of mesotrione
